Results as given in article PMC3485666 (British Journal of Pharmacology, 2012).

Legend:
[1] = biological target: human S1P5 receptors (Homo sapiens, UniProt Q9H228); assay: GTPγ[35S] binding assay, human S1P5; format: biochemical; details: read-out: %Emax (percentage of maximum stimulation), S1P5
[2] = biological target: human S1P1 receptors (Homo sapiens, UniProt P21453); assay: GTPγ[35S] binding assay, human S1P1; format: biochemical
[3] = clinical; details: both, human, in vivo, Complete wash-out (five effective half-lives) after treatment discontinuation
[4] = biological target: myc-tagged human S1P1 receptors (Homo sapiens, UniProt P21453); assay: Agonist-mediated internalization of S1P1 receptors in CHO cells by flow cytometry; format: cell-based; details: for Internalization of S1P1 receptors: 1 h incubation; for S1P1 receptors localized intracellularly: 1 h incubation followed by 3 h without compound
Sequence of myc-tagged human S1P1 receptors (P21453 whole entry): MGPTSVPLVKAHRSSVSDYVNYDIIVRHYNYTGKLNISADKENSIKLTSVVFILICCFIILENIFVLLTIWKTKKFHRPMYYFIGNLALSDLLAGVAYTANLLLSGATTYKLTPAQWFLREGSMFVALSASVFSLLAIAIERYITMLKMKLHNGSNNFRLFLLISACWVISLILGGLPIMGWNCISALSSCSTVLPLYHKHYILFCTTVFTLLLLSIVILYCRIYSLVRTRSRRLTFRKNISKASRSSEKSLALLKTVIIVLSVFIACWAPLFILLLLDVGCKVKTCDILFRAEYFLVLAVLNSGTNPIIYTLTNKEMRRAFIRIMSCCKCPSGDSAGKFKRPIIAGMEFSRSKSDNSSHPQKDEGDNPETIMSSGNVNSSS

[5] = system: healthy subjects; assay: Phase I multiple-dose study: safety and tolerability; format: in vivo, human
[6] = Phase I multiple-dose study: plasma pharmacokinetics; details: for AUCτ / concentration at 28 day / half-life at 28 day: geometric mean [%CV]; for Cmax at 28 day / Tmax / Tmax at 28 day / concentration at 28 day / half-life at 28 day / Cmax / half-life: both, human, plasma, oral; for half-life at 28 day: based on drug accumulation at steady-state
[7] = system: heart rate; assay: Phase I multiple-dose study: heart rate (Holter monitoring); format: in vivo, human; details: for Decrease in mean heart rate Emax0-24 versus placebo: day 1; for Mean heart rate reduction from time-matched day −1: 2 h post dose of day 1
[8] = system: leukocyte subsets in whole blood; assay: Phase I multiple-dose study: leukocyte subsets by flow cytometry; format: in vivo, human; details: 10 mg
[9] = biological target: T1, human S1P4 receptors (Homo sapiens, UniProt O95977); assay: GTPγ[35S] binding assay, human S1P4; format: biochemical; details: read-out: %Emax (percentage of maximum stimulation)
T1 sequence (O95977 1-384): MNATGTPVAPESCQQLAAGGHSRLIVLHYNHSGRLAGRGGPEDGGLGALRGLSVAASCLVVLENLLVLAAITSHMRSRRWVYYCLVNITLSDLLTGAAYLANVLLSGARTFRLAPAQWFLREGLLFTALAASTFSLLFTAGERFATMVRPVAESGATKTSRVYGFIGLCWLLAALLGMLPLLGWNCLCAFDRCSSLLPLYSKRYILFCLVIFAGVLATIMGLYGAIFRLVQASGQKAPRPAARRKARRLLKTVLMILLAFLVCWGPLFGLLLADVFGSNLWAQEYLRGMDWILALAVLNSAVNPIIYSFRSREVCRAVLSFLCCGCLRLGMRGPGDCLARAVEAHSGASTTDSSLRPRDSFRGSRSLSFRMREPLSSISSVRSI

[10] = biological target: human S1P2 receptors (Homo sapiens, UniProt O95136); assay: GTPγ[35S] binding assay, human S1P2; format: biochemical
Sequence of human S1P2 receptors (O95136 whole entry): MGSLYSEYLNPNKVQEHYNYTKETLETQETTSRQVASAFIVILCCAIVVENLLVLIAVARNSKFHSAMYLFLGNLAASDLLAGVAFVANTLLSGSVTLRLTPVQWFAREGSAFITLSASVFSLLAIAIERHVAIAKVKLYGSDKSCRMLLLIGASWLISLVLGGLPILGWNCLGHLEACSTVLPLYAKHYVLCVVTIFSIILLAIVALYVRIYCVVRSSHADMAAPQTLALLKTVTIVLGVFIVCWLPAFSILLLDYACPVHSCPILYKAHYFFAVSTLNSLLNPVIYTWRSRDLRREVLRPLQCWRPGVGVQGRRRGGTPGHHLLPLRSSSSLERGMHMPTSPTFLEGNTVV

[11] = system: experimental autoimmune encephalomyelitis (EAE); assay: Chronic EAE in DA rats, therapeutic dosing; format: in vivo; details: DA rat, days 11–34
[12] = system: peripheral absolute lymphocyte count (ALC); assay: Phase I multiple-dose study: absolute lymphocyte count; format: in vivo, human; details: for Difference in mean %Emax of ALC, BAF312 versus placebo: 28 days, ANCOVA; for Average time to reach the lower limit of the normal ALC range after stopping dosing at steady state: predicted by pharmacokinetic/pharmacodynamic model
[13] = biological target: human S1P3 receptors (Homo sapiens, UniProt Q99500); assay: GTPγ[35S] binding assay, human S1P3; format: biochemical
Sequence of human S1P3 receptors (Q99500 whole entry): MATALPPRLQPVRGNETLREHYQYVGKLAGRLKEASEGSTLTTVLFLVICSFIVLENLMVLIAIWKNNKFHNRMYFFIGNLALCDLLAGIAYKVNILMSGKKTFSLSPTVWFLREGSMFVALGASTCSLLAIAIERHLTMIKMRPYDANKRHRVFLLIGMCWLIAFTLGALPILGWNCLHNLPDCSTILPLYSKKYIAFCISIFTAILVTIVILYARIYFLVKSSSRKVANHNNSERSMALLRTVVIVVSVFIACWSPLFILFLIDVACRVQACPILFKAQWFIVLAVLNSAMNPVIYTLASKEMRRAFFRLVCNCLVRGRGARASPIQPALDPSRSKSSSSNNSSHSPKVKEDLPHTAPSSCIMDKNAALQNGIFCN

[14] = biological target: GIRK channels in human atrial myocytes (Homo sapiens, UniProt P21453); assay: Electrophysiological recordings of GIRK current in human atrial myocytes; format: cell-based; details: S1P versus BAF312
Sequence of GIRK channels in human atrial myocytes (P21453 whole entry): as the sequence (P21453 whole entry) above
Sequence of GIRK channels in human atrial myocytes (P48549 whole entry partner): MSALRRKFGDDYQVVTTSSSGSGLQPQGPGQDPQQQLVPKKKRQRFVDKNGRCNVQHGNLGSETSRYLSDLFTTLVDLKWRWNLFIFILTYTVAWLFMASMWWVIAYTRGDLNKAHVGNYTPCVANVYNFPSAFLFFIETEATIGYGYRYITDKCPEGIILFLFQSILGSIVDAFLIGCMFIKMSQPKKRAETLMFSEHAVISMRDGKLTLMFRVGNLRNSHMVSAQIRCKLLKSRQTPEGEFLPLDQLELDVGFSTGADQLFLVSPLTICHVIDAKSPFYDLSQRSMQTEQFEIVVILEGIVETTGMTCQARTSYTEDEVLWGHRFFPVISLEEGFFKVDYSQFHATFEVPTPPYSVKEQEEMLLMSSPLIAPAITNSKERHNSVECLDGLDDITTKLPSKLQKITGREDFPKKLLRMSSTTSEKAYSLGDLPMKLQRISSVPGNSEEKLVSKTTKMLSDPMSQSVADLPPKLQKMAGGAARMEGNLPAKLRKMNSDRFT
Sequence of GIRK channels in human atrial myocytes (P48544 whole entry partner): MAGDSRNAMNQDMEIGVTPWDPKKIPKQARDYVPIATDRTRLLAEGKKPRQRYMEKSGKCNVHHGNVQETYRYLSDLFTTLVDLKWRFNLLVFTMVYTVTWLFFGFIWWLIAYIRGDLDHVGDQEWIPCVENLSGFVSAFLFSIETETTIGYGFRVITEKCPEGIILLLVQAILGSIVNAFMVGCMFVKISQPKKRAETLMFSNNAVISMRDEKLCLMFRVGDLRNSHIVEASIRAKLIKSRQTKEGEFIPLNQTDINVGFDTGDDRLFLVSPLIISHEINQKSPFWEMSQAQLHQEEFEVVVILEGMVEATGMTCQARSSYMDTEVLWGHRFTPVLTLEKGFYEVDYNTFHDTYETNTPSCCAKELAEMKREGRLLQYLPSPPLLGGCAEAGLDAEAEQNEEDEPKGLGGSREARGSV

[15] = system: S1P1 receptors; details: ref Piali et al., 2011; cited from earlier work

Sequence of human S1P5 receptors (Q9H228 whole entry): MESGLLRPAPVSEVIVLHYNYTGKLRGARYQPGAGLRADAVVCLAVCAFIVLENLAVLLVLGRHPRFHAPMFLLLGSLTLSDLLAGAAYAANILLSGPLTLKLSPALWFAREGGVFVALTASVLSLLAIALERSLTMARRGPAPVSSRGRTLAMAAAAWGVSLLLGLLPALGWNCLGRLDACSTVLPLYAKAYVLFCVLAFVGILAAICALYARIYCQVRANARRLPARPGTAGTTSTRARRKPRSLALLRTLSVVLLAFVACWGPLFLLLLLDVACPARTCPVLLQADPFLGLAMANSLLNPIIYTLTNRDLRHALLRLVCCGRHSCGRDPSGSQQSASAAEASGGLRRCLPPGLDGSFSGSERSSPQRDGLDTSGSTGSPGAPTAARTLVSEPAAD
Sequence of human S1P1 receptors (P21453 whole entry): as the sequence (P21453 whole entry) above

CCc1cc(/C(C)=N/OCc2ccc(C3CCCCC3)c(C(F)(F)F)c2)ccc1CN1CC(C(=O)O)C1 [BAF312, 1-(4-{1-[(E)-4-cyclohexyl-3-trifluoromethylbenzyloxyimino]-ethyl}-2-ethylbenzyl)-azetidine-3-carboxylic acid]
Emax [1]: ~100% | EC50 [2]: 0.39 ± 0.07 nM | half-life [3]: 151 h | Internalization of S1P1 receptors ([4]; 10 nM, 2 experiments): 86 ± 4% | Internalization of S1P1 receptors ([4]; 100 nM, 2 experiments): 99 ± 3% | S1P1 receptors localized intracellularly ([4]; 1 µM, mean ± SD): 87 ± 0.5% | Internalization of S1P1 receptors ([4]; 1 µM, mean ± SD): 91 ± 4% | Surface expression of S1P1 receptors ([4]; incubated for up to 12 h without compound (data not shown)): remained low | Subjects experiencing AEs ([5]; 0.3 mg dose group): three | Subjects experiencing AEs ([5]; 1 mg dose group): three | Subjects experiencing AEs ([5]; 2.5 mg dose group): four | Subjects experiencing AEs ([5]; 10 mg dose group): six | Subjects experiencing AEs ([5]; 20 mg dose group): six | Macular oedema by ocular coherence tomography ([5]; 0.3–20 mg once daily, 28 days): no signs of macular oedema | Tolerability ([5]; 0.3–20 mg once daily, 28 days, healthy subjects): well tolerated | Elevations in alanine aminotransferase level ([5]; by dose group): occurred most frequently in subjects in the BAF312 20 mg dose group | Pulmonary function tests versus placebo ([5]; not related to dose and day (data not shown)): mild to moderate, statistically significant decreases | Visual acuity scores over treatment days ([5]; regardless of the dose): no notable changes | Serious AEs ([5]; whole trial): no serious AEs | AUC0–24 h ([6]; Day 1, 0.3 mg·day^−1): 36.2 [10] h^*ng·mL^−1 | AUC0–24 h ([6]; Day 1, 1 mg·day^−1): 136 [8] h^*ng·mL^−1 | AUC0–24 h ([6]; Day 1, 2.5 mg·day^−1): 293 [85] h^*ng·mL^−1 | AUC0–24 h ([6]; Day 1, 10 mg·day^−1): 1370 [11] h^*ng·mL^−1 | AUC0–24 h ([6]; Day 1, 20 mg·day^−1): 2740 [14] h^*ng·mL^−1 | AUCτ ([6]; Day 28, 0.3 mg·day^−1): 97.9 [19] h^*ng·mL^−1 | AUCτ ([6]; Day 28, 1 mg·day^−1): 282 [16] h^*ng·mL^−1 | AUCτ ([6]; Day 28, 2.5 mg·day^−1): 692 [45] h^*ng·mL^−1 | AUCτ ([6]; Day 28, 10 mg·day^−1): 2580 [24] h^*ng·mL^−1 | Cmin,ss ([6]; Day 28, 20 mg·day^−1, arithmetic mean (SD)): 166 (88.0) ^D ng·mL^−1 | AUCτ ([6]; Day 28, 20 mg·day^−1): 6370 [23] h^*ng·mL^−1 | Cmax at 28 day ([6]; 0.3 mg·day^−1): 5.31 ng/mL | Tmax ([6]; 0.3 mg·day^−1): 3 h | Tmax at 28 day ([6]; 0.3 mg·day^−1): 3.5 h | concentration at 28 day ([6]; 0.3 mg·day^−1, Cavg, ss, Day 28, 0.3 mg·day^−1): 4.08 ng/mL | concentration at 28 day ([6]; 0.3 mg·day^−1, Cmin,ss, Day 28, 0.3 mg·day^−1): 2.83 ng/mL | half-life at 28 day ([6]; 0.3 mg·day^−1, Effective T1/2, Day 28, 0.3 mg·day^−1): 36.2 h | Cmax ([6]; 1 mg·day^−1): 8.01 ng/mL | Cmax at 28 day ([6]; 1 mg·day^−1): 14.9 ng/mL | Tmax ([6]; 1 mg·day^−1): 4.5 h | Tmax at 28 day ([6]; 1 mg·day^−1): 3 h | concentration at 28 day ([6]; 1 mg·day^−1, Cavg, ss, Day 28, 1 mg·day^−1): 11.7 ng/mL | concentration at 28 day ([6]; 1 mg·day^−1, Cmin,ss, Day 28, 1 mg·day^−1): 7.74 ng/mL | half-life at 28 day ([6]; 1 mg·day^−1, Effective T1/2, Day 28, 1 mg·day^−1): 25.2 h | Cmax ([6]; 2.5 mg·day^−1): 17.4 ng/mL | Cmax at 28 day ([6]; 2.5 mg·day^−1): 38.3 ng/mL | Tmax ([6]; 2.5 mg·day^−1): 3 h | Tmax at 28 day ([6]; 2.5 mg·day^−1): 4 h | concentration at 28 day ([6]; 2.5 mg·day^−1, Cavg, ss, Day 28, 2.5 mg·day^−1): 28.8 ng/mL | concentration at 28 day ([6]; 2.5 mg·day^−1, Cmin,ss, Day 28, 2.5 mg·day^−1): 15.2 ng/mL | Cmax ([6]; 10 mg·day^−1): 84.1 ng/mL | Cmax at 28 day ([6]; 10 mg·day^−1): 147 ng/mL | Tmax ([6]; 10 mg·day^−1): 3 h | Tmax at 28 day ([6]; 10 mg·day^−1): 3 h | concentration at 28 day ([6]; 10 mg·day^−1, Cavg, ss, Day 28, 10 mg·day^−1): 107 ng/mL | concentration at 28 day ([6]; 10 mg·day^−1, Cmin,ss, Day 28, 10 mg·day^−1): 70.6 ng/mL | half-life at 28 day ([6]; 10 mg·day^−1, Effective T1/2, Day 28, 10 mg·day^−1): 21.9 h | Cmax ([6]; 20 mg·day^−1): 162 ng/mL | Cmax at 28 day ([6]; 20 mg·day^−1): 359 ng/mL | Tmax ([6]; 20 mg·day^−1): 4 h | Tmax at 28 day ([6]; 20 mg·day^−1): 3 h | concentration at 28 day ([6]; 20 mg·day^−1, Cavg, ss, Day 28, 20 mg·day^−1): 265 ng/mL | half-life at 28 day ([6]; 20 mg·day^−1, Effective T1/2, Day 28, 20 mg·day^−1): 28.8 h | half-life ([6]; Effective elimination half-life based on drug accumulation at steady state, range over dose groups): 22 to 38 h | half-life ([6]; Effective elimination half-life, mean, mean over dose groups): 30 h | Dose proportionality of pharmacokinetics ([6]; dose range of 0.3 to 20 mg): increase proportionally with the dose | Time to steady-state concentrations ([6]; multiple once-daily administration): approximately 6 days | Decrease in mean heart rate Emax0-24 versus placebo ([7]; 0.3 mg, 90% CI in brackets, not significant): −0.92 bpm | Decrease in mean heart rate Emax0-24 versus placebo ([7]; 1 mg): −6.41 bpm | Decrease in mean heart rate Emax0-24 versus placebo ([7]; 2.5 mg): −5.44 bpm | Mean heart rate reduction from time-matched day −1 ([7]; 10 mg): approximately 24 ± 6 bpm | Decrease in mean heart rate Emax0-24 versus placebo ([7]; 10 mg): −13.88 bpm | Mean heart rate reduction from time-matched day −1 ([7]; 20 mg): ~29 ± 10 bpm | Subjects with asymptomatic second degree atrioventricular (AV) block ([7]; active groups, each on day 1): three | Time of maximum decrease in mean ventricular heart rate post dose ([7]; day 1, all (0.3–20 mg) doses): ~2 h | Effect on B and T cell counts ([8]; baseline to end of treatment): strong reduction in cell counts | Effect on monocyte counts ([8]; baseline to end of treatment): Little or no effect | Leukocyte subset cell counts after discontinuation ([8]; three weeks after discontinuation (data not shown)): returned to baseline levels | Emax [9]: 90 ± 9% | EC50 [10]: > 10000 nM | Disease scores (AUC from days 12 to 34) versus vehicle ([11]; 0.03 mg·kg^−1 oral once daily): borderline effect | Disease scores (AUC from days 12 to 34) versus vehicle ([11]; 0.3 mg·kg^−1 oral once daily): significant reduction | Disease scores (AUC from days 12 to 34) versus vehicle ([11]; 3 mg·kg^−1 oral once daily): significant reduction | Difference in mean %Emax of ALC, BAF312 versus placebo ([12]; 0.3 mg once daily, 90% CI in parentheses): 32.8% | Difference in mean %Emax of ALC, BAF312 versus placebo ([12]; 1 mg once daily): 61.6% | Average time to reach the lower limit of the normal ALC range after stopping dosing at steady state ([12]; 1 mg): approximately 24 h | Difference in mean %Emax of ALC, BAF312 versus placebo ([12]; 2.5 mg once daily): 56.7% | Difference in mean %Emax of ALC, BAF312 versus placebo ([12]; 10 mg once daily): 74.6% | Average time to reach the lower limit of the normal ALC range after stopping dosing at steady state ([12]; 10 mg): ~123 h | Difference in mean %Emax of ALC, BAF312 versus placebo ([12]; 20 mg once daily): 76.1% | Time of maximal ALC reduction post dose ([12]; day 1, healthy subjects): 4 to 6 h | Study day by which ALC returned to the normal range ([12]; treatment stopped on day 28, dose groups 0.3–10 mg): ≤ 35 days | EC50 [13]: > 1000 nM

CCCCCCCCCCCCC/C=C/[C@@H](O)[C@@H](N)COP(=O)(O)O [S1P, sphingosine 1-phosphate, reference compound]
Potency in activating GIRK current relative to BAF312 [14]: approximately 8 times | S1P1 receptors localized intracellularly ([4]; 1 µM, mean ± SD): 9 ± 9% | Internalization of S1P1 receptors ([4]; 1 µM, mean ± SD): 48 ± 12%

CCC/N=C1\S/C(=C\c2ccc(OC[C@H](O)CO)c(Cl)c2)C(=O)N1c1ccccc1C [ponesimod]
Selectivity of S1P1 versus S1P3 (full agonist) [15]: 20 fold | Selectivity of S1P1 versus S1P5 (partial agonist) [15]: 10 fold
